Results reported in the NIST ThermoML archive (doi:10.1016/j.jct.2012.04.018).
± gives the expanded uncertainty stated by the source.

Test: refractive index (other wavelength) (dimensionless)
Conditions: 100 kPa, Liquid, Wavelength=632.8 nm, He-Ne laser

SMILES | refractive index (280.98 K) | refractive index (281.89 K) | refractive index (283.78 K) | refractive index (286.19 K) | refractive index (288.04 K) | refractive index (290.13 K) | refractive index (280.08 K) | refractive index (281.97 K) | refractive index (283.66 K) | refractive index (285.71 K) | refractive index (287.84 K) | refractive index (290.47 K)
N#Cc1ccccc1 [benzonitrile] | 1.5309 ± 0.0003 | 1.5304 ± 0.0003 | 1.5296 ± 0.0003 | 1.5284 ± 0.0003 | 1.5275 ± 0.0003 | 1.5266 ± 0.0003 |  |  |  |  |  | 
CCCCCCCCCCC [undecane] |  |  |  |  |  |  | 1.4216 ± 0.0003 | 1.4209 ± 0.0003 | 1.4201 ± 0.0003 | 1.4192 ± 0.0003 | 1.4182 ± 0.0003 | 1.4171 ± 0.0003
